The target in the test is GST-Bcl-2 (Homo sapiens (Human), UniProt P10415). In words: Time Resolved-Fluorescence Resonance Energy Transfer (TR-FRET) Bcl-2 binding assay. Conditions: GST-Bcl-2 1 nM, F-Bak peptide probe 100 nM, Tb-anti-GST antibody 1 nM; Ki by Wang's equation. In short, it runs like this:
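Ki values derived from TR-FRET displacement of F-Bak peptide from GST-Bcl-2, detected with Tb-labelled anti-GST antibody (ex 340, em 520/495 nm). Compound dilution series started at 50 μM (2× starting concentration); room-temperature incubation 3 hours.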
Chain of GST-Bcl-2 (P10415 whole entry): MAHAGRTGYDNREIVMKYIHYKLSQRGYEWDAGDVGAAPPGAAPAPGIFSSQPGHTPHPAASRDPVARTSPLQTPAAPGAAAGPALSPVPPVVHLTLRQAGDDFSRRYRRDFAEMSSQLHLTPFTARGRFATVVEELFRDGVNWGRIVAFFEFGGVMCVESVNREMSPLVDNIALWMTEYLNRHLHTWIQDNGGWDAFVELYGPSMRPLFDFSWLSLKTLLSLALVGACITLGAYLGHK
Regarding `CN(C)CCCNc1ccc(S(=O)(=O)NC(=O)c2ccc(N3CCN(CC4=C(c5ccc(Cl)cc5)CC(C)(C)CC4)CC3)cc2Oc2ccccc2Cl)cc1[N+](=O)[O-]` [Example 179, 2-(2-chlorophenoxy)-4-(4-{[2-(4-chlorophenyl)-4,4-dimethylcyclohex-1-en-1-yl]methyl}piperazin-1-yl)-N-[(4-{[3-(dimethylamino)propyl]amino}-3-nitrophenyl)sulfonyl]benzamide], the affinity corresponds to a Ki of 0.036 nM. Under `COc1ccccc1Oc1cc(N2CCN(CC3=C(c4ccc(Cl)cc4)CC(C)(C)CC3)CC2)ccc1C(=O)NS(=O)(=O)c1ccc(NC2CCN(C)CC2)c([N+](=O)[O-])c1` [Example 180, 4-(4-{[2-(4-chlorophenyl)-4,4-dimethylcyclohex-1-en-1-yl]methyl}piperazin-1-yl)-2-(2-methoxyphenoxy)-N-({4-[(1-methylpiperidin-4-yl)amino]-3-nitrophenyl}sulfonyl)benzamide] stands 0.112 nM; under `Cc1ccccc1Oc1cc(N2CCN(CC3=C(c4ccc(Cl)cc4)CC(C)(C)CC3)CC2)ccc1C(=O)NS(=O)(=O)c1ccc(NC2CCN(C)CC2)c([N+](=O)[O-])c1` [Example 181, 4-(4-{[2-(4-chlorophenyl)-4,4-dimethylcyclohex-1-en-1-yl]methyl}piperazin-1-yl)-2-(2-methylphenoxy)-N-({4-[(1-methylpiperidin-4-yl)amino]-3-nitrophenyl}sulfonyl)benzamide], 0.119 nM. Under `Cc1cccc(Oc2cc(N3CCN(CC4=C(c5ccc(Cl)cc5)CC(C)(C)CC4)CC3)ccc2C(=O)NS(=O)(=O)c2ccc(NC3CCN(C)CC3)c([N+](=O)[O-])c2)c1` [Example 182, 4-(4-{[2-(4-chlorophenyl)-4,4-dimethylcyclohex-1-en-1-yl]methyl}piperazin-1-yl)-2-(3-methylphenoxy)-N-({4-[(1-methylpiperidin-4-yl)amino]-3-nitrophenyl}sulfonyl)benzamide] stands 0.172 nM; under `CN1CCC(Nc2ccc(S(=O)(=O)NC(=O)c3ccc(N4CCN(Cc5cc6c(cc5-c5ccc(Cl)cc5)OCO6)CC4)cc3Oc3ccccc3Cl)cc2[N+](=O)[O-])CC1` [Example 183, 2-(2-chlorophenoxy)-4-(4-{[6-(4-chlorophenyl)-1,3-benzodioxol-5-yl]methyl}piperazin-1-yl)-N-({4-[(1-methylpiperidin-4-yl)amino]-3-nitrophenyl}sulfonyl)benzamide], 2.53 nM. Under `CN1CCN(Nc2ccc(S(=O)(=O)NC(=O)c3ccc(N4CCN(CC5=C(c6ccc(Cl)cc6)CC(C)(C)CC5)CC4)cc3Oc3ccccc3Cl)cc2[N+](=O)[O-])CC1` [Example 184, 2-(2-chlorophenoxy)-4-(4-{[2-(4-chlorophenyl)-4,4-dimethylcyclohex-1-en-1-yl]methyl}piperazin-1-yl)-N-({4-[(4-methylpiperazin-1-yl)amino]-3-nitrophenyl}sulfonyl)benzamide] stands 0.155 nM; under `CN1CCN(Nc2ccc(S(=O)(=O)NC(=O)c3ccc(N4CCN(CC5=C(c6ccc(Cl)cc6)CC(C)(C)OC5)CC4)cc3Oc3cccc(Cl)c3)cc2[N+](=O)[O-])CC1` [Example 185, 2-(3-chlorophenoxy)-4-(4-{[4-(4-chlorophenyl)-6,6-dimethyl-5,6-dihydro-2H-pyran-3-yl]methyl}piperazin-1-yl)-N-({4-[(4-methylpiperazin-1-yl)amino]-3-nitrophenyl}sulfonyl)benzamide], 0.083 nM. Consider `CN1CCN(Nc2ccc(S(=O)(=O)NC(=O)c3ccc(N4CCN(CC5=C(c6ccc(Cl)cc6)CC(C)(C)OC5)CC4)cc3Oc3cccc(F)c3F)cc2[N+](=O)[O-])CC1` [Example 186, 4-(4-{[4-(4-chlorophenyl)-6,6-dimethyl-5,6-dihydro-2H-pyran-3-yl]methyl}piperazin-1-yl)-2-(2,3-difluorophenoxy)-N-({4-[(4-methylpiperazin-1-yl)amino]-3-nitrophenyl}sulfonyl)benzamide], for which the inhibitory constant (Ki) – broadly, a measure of affinity in units of concentration, obtained from inhibition or displacement – is 0.035 nM. With `CC1(C)CCC(CN2CCN(c3ccc(C(=O)NS(=O)(=O)c4ccc(NC5CCN(CC6CC6)CC5)c([N+](=O)[O-])c4)c(Oc4cccc(Cl)c4)c3)CC2)=C(c2ccc(Cl)cc2)C1` [Example 187, 2-(3-chlorophenoxy)-4-(4-{[2-(4-chlorophenyl)-4,4-dimethylcyclohex-1-en-1-yl]methyl}piperazin-1-yl)-N-[(4-{[1-(cyclopropylmethyl)piperidin-4-yl]amino}-3-nitrophenyl)sulfonyl]benzamide] the figure was 0.054 nM; with `CC1(C)CCC(CN2CCN(c3ccc(C(=O)NS(=O)(=O)c4ccc(NC5CCN(CC6CC6)CC5)c([N+](=O)[O-])c4)c(Oc4ccccc4Cl)c3)CC2)=C(c2ccc(Cl)cc2)C1` [Example 188, 2-(2-chlorophenoxy)-4-(4-{[2-(4-chlorophenyl)-4,4-dimethylcyclohex-1-en-1-yl]methyl}piperazin-1-yl)-N-[(4-{[1-(cyclopropylmethyl)piperidin-4-yl]amino}-3-nitrophenyl)sulfonyl]benzamide], 0.073 nM. Under `CC1(C)CCC(CN2CCN(c3ccc(C(=O)NS(=O)(=O)c4ccc(NC5CCN(CCN6CCOCC6)CC5)c([N+](=O)[O-])c4)c(Oc4cccc(Cl)c4)c3)CC2)=C(c2ccc(Cl)cc2)C1` [Example 190, 2-(3-chlorophenoxy)-4-(4-{[2-(4-chlorophenyl)-4,4-dimethylcyclohex-1-en-1-yl]methyl}piperazin-1-yl)-N-[(4-{[1-(2-morpholin-4-ylethyl)piperidin-4-yl]amino}-3-nitrophenyl)sulfonyl]benzamide] stands 0.077 nM. Under `CN1CCC(O)(CNc2ccc(S(=O)(=O)NC(=O)c3ccc(N4CCN(CC5=C(c6ccc(Cl)cc6)CC(C)(C)CC5)CC4)cc3Oc3ccccc3Cl)cc2[N+](=O)[O-])CC1` [Example 192, 2-(2-chlorophenoxy)-4-(4-{[2-(4-chlorophenyl)-4,4-dimethylcyclohex-1-en-1-yl]methyl}piperazin-1-yl)-N-[(4-{[(4-hydroxy-1-methylpiperidin-4-yl)methyl]amino}-3-nitrophenyl)sulfonyl]benzamide] stands 0.024 nM; under `CC1(C)CCC(CN2CCN(c3ccc(C(=O)NS(=O)(=O)c4ccc(NC5CCN(C6CCOCC6)CC5)c([N+](=O)[O-])c4)c(Oc4cc5cc[nH]c5cc4F)c3)CC2)=C(c2ccc(Cl)cc2)C1` [Example 193, 4-(4-{[2-(4-chlorophenyl)-4,4-dimethylcyclohex-1-en-1-yl]methyl}piperazin-1-yl)-2-[(6-fluoro-1H-indol-5-yl)oxy]-N-({3-nitro-4-[(1-tetrahydro-2H-pyran-4-ylpiperidin-4-yl)amino]phenyl}sulfonyl)benzamide], 0.064 nM. Take `CN1CC[C@H](Nc2ccc(S(=O)(=O)NC(=O)c3ccc(N4CCN(CC5=C(c6ccc(Cl)cc6)CC(C)(C)CC5)CC4)cc3Oc3cccc(Cl)c3)cc2[N+](=O)[O-])C1` [Example 194, 2-(3-chlorophenoxy)-4-(4-{[2-(4-chlorophenyl)-4,4-dimethylcyclohex-1-en-1-yl]methyl}piperazin-1-yl)-N-[(4-{[(3S)-1-methylpyrrolidin-3-yl]amino}-3-nitrophenyl)sulfonyl]benzamide]: the inhibitory constant (Ki) was determined as 0.317 nM. Under `CN1CC[C@@H](Nc2ccc(S(=O)(=O)NC(=O)c3ccc(N4CCN(CC5=C(c6ccc(Cl)cc6)CC(C)(C)CC5)CC4)cc3Oc3cccc(Cl)c3)cc2[N+](=O)[O-])C1` [Example 195, 2-(3-chlorophenoxy)-4-(4-{[2-(4-chlorophenyl)-4,4-dimethylcyclohex-1-en-1-yl]methyl}piperazin-1-yl)-N-[(4-{[(3R)-1-methylpyrrolidin-3-yl]amino}-3-nitrophenyl)sulfonyl]benzamide] stands 0.684 nM; under `CN1CCC(Nc2ccc(S(=O)(=O)NC(=O)c3ccc(N4CCN(CC5=C(c6ccc(Cl)cc6)CC(C)(C)CC5)CC4)cc3Oc3cccc(-c4ccc[nH]4)c3)cc2[N+](=O)[O-])CC1` [Example 197, 4-(4-{[2-(4-chlorophenyl)-4,4-dimethylcyclohex-1-en-1-yl]methyl}piperazin-1-yl)-N-({4-[(1-methylpiperidin-4-yl)amino]-3-nitrophenyl}sulfonyl)-2-[3-(1H-pyrrol-2-yl)phenoxy]benzamide], 0.22 nM; under `CN1CCC(O)(CNc2ccc(S(=O)(=O)NC(=O)c3ccc(N4CCN(CC5=C(c6ccc(Cl)cc6)CC(C)(C)CC5)CC4)cc3Oc3cccc(F)c3)cc2[N+](=O)[O-])CC1` [Example 198, 4-(4-{[2-(4-chlorophenyl)-4,4-dimethylcyclohex-1-en-1-yl]methyl}piperazin-1-yl)-2-(3-fluorophenoxy)-N-[(4-{[(4-hydroxy-1-methylpiperidin-4-yl)methyl]amino}-3-nitrophenyl)sulfonyl]benzamide], less than 0.01 nM. Under `CN1CCN(Nc2ccc(S(=O)(=O)NC(=O)c3ccc(N4CCN(CC5=C(c6ccc(Cl)cc6)CC(C)(C)CC5)CC4)cc3Oc3cccc(Cl)c3)cc2[N+](=O)[O-])CC1` [Example 199, 2-(3-chlorophenoxy)-4-(4-{[2-(4-chlorophenyl)-4,4-dimethylcyclohex-1-en-1-yl]methyl}piperazin-1-yl)-N-({4-[(4-methylpiperazin-1-yl)amino]-3-nitrophenyl}sulfonyl)benzamide] stands 0.244 nM; under `CN1CCC(Nc2ccc(S(=O)(=O)NC(=O)c3ccc(N4CCN(CC5=C(c6ccc(Cl)cc6)CC(C)(C)CC5)CC4)cc3Oc3cc4cc[nH]c4c(F)c3F)cc2[N+](=O)[O-])CC1` [Example 200, 4-(4-{[2-(4-chlorophenyl)-4,4-dimethylcyclohex-1-en-1-yl]methyl}piperazin-1-yl)-2-[(6,7-difluoro-1H-indol-5-yl)oxy]-N-({4-[(1-methylpiperidin-4-yl)amino]-3-nitrophenyl}sulfonyl)benzamide], 0.081 nM.

For the origin of these results see US8952157B2, “Apoptosis-inducing agents for the treatment of cancer and immune and autoimmune diseases” (AbbVie Inc., priority 2008, dated 2015).
